Measured values from patent publication US20260183283A1 (priority 2022, published 2026).
Where two headings read alike, the source gives them in different places.

Assays:
[1] = test system: C57BL/6J (wild-type) mice; settings: oral gavage QD 0.1, 1, 3, 10 or 30 mg/kg for one week; four hours after last dose
Method: Tissue Total CoA Determinations: Total CoA was quantified as described earlier. Either frozen brain or liver tissue (30-40 mg) was homogenized in 1 mM potassium hydroxide (KOH) to hydrolyze all the acyl chains and then the CoA was derivatized with monobromobimane (mBBr). […] The retention time was determined by running a CoA standard before each set of samples. Total CoA was quantified using a standard curve generated with known amounts of CoA.
Control animals were administered 0.5% methylcellulose QD for one week. Four hours after the last dose, the animals were sacrificed, plasma and tissues were collected, and CoA levels were determined in tissues. […] Statistical significance was determined for total CoA using a Student's t-test calculated with GraphPad software and P-values compared to the control animals are noted on the figure panels.

PanK = assay: Phase 1 pharmacodynamic biomarkers, plasma pantothenate and whole blood acetyl-CoA; format: in vivo, human; settings: MAD cohorts at steady-state
Description: Pharmacodynamic biomarker assessments will include whole blood acetyl-CoA, plasma pantothenate, and other exploratory PD biomarkers.
Pharmacodynamic biomarker samples will be analyzed using a validated assay for the PD assessments.
In MAD cohorts at steady-state, decreases in the PanK substrate, pantothenate, were observed, concurrent with increases in the PanK product, acetyl-CoA, in whole blood.

[2] = test system: Pank1,2 neural knockout mice; assay: Survival of Pank1,2 neural knockout mice; format: in vivo; settings: 75 ppm in chow from postnatal day 14; untreated ~50%
Description: (§1) Water was supplied ad libitum. Mice were maintained on a chow diet with purified ingredients containing 19% kcal protein, 66.5% kcal carbohydrate and 14.4% kcal fat (Envigo #TD170542) which was similar to standard rodent chow (LabDiet #5013). The mice were randomized into the treatment arms. […] However, this is an approximation, as SynCre^+Pank1^−/−Pank2^−/− mice both weigh less and eat less than wild-type mice. […] At the end of the dark cycle, individual mice were placed in an open rectangular arena (36.8 cm×43.2 cm) for 5 min during the light cycle and motor activity was evaluated using a video tracking system provided by HVS Image with associated 2100 Plus software (San Diego, CA, USA). Each animal was placed in the center of the arena under standard overhead lighting and the total distance traveled and the percentage of time in motion were recorded. The behaviors of age-matched control animals, treated with Compound (I) and untreated, were quantified and compared. […] Liver, forebrain and hindbrain were quickly excised, approximately 30-50 mg pieces were immediately flash frozen in liquid N2 and stored frozen at −80° C. until analysis. The plasma and tissue samples were used for Compound (I) and total CoA determinations.
(§2) Following analysis of movement, all animals were sacrificed at postnatal Day 45 for examination of tissue CoA levels.

[3] = test system: Pcca^−/−PCCA(A138T)^tg/0 mice; assay: Acyl-CoA in liver, brain and heart of Pcca−/−PCCA(A138T)tg/0 mice; format: in vivo; settings: 22.5 ppm (3 mg/kg) in chow for 30 days after weaning
Method: (§3) Water was supplied ad libitum.
Acyl-CoA Measurements by Mass Spectrometry: Acyl-CoAs were quantified as described by Sharma et al., Nat. Commun. 2018; 9:4399. Briefly, 30-40 mg of tissue was homogenized in 2 mL methanol and 1 mL water and incubated on ice for 30 minutes. 1.5 mL of chloroform and 1.2 mL of water was added to remove the lipids. The aqueous top layer was collected and 30 pmol of [13C]acetyl-CoA (Sigma) was added and dried overnight in a speedvac.
Mass spectrometry of the acyl-CoA distribution was performed using a Finnigan TSQ Quantum (Thermo Electron) triple-quadrupole mass spectrometer. The instrument was operated in positive mode using single ion monitoring (SIM) neutral loss scanning corresponding to the loss of the phosphoadenosine diphosphate from CoA species. The ion source parameters were as follows: spray voltage, 4,000 V; capillary temperature, 250° C.; capillary offset, −35 V; sheath gas pressure, 10; auxiliary gas pressure, 5; and tube lens offset was set by infusion of the polytyrosine tuning and calibration in electrospray mode. Acquisition parameters were as follows: scan time, 0.5 s; collision energy, 30 V; peak width Q1 and Q3, 0.7 FWHM; Q2 CID gas, 0.5 mTorr; source CID, 10 V; neutral loss, 507.0 m/z; SIM mass of 810 m/z with a scan width of 8 m/z to capture the signal from cellular acetyl-CoA and the [13C]acetyl-CoA internal standard.

[4] = 60 mg, fed vs fasted
Method: All subjects will receive 2 doses of study drug in a crossover manner, separated by a washout period of 7 days or 5 half-lives up to 21 days (whichever is longer).
Study drug will then be administered along with a standardized high-calorie (approximately 800 to 1000 calories) breakfast. The meal will be ingested entirely within 30 minutes, and study drug will be administered 30 minutes after the start of the meal.

in vivo = settings: mouse, rat, dog, monkey, iv
[5] = test system: Pank1,2 neural knockout mice; assay: Open field test in Pank1,2 neural knockout mice; format: in vivo; settings: 22.5 ppm in chow from postnatal day 14; postnatal day 45
Method: The mice were maintained at 72°±2° F., humidity 50%±10% and a 14-hour light/10-hour dark cycle with the dark cycle starting at 20:00 hrs. Water was supplied ad libitum. […] The mice were randomized into the treatment arms. […] Each animal was placed in the center of the arena under standard overhead lighting and the total distance traveled and the percentage of time in motion were recorded.

[6] = rat, in vivo
[7] = 22.5 ppm (3 mg/kg) in chow for 30 days after weaning
Method: The mice were maintained at 72′±2° F., humidity 50%±10% and a 14-hour light/10-hour dark cycle with the dark cycle starting at 20:00 hrs. Water was supplied ad libitum. The mice were randomized into the treatment arms to achieve a normal weight distribution. […] However, this is merely an approximation, as Pcca^−/−PCCA(A138T)^tg/0 mice weigh less but also eat less than wild-type mice. […] Blood was collected in ethylenediaminetetraacetic acid (EDTA) at P50 by cardiac puncture from isoflurane-anesthetized animals, plasma was prepared and stored frozen at −80° C. until analysis. Liver, brain, and heart were quickly excised, immediately flash frozen in liquid nitrogen and stored frozen at −80° C. until analysis.
The samples were incubated on ice for 30 min. Samples were spun at 3500×g for 10 min to pellet debris, and the supernatant was transferred to a glass vial. […] 30 mg of tissue was homogenized in 2 mL of 80% methanol containing 0.1 μM warfarin and incubated at −80° C. for 4 hr. Samples were spun at 3500×g for 10 min to pellet debris, supernatant was transferred to a glass tube and dried down using a Savant SPD1010 Speed-Vac (Thermo Scientific) overnight. Samples were resuspended in 400 μL of 80% acetonitrile to a final concentration of 0.5 μM and transferred to a glass vial. […]

[8] = test system: Pank1,2 neural knockout mice; assay: Body weight of Pank1,2 neural knockout mice; format: in vivo; settings: 75 ppm in chow from postnatal day 14
Description: as §1, §2

[9] = Description: Safety and tolerability endpoints will include monitoring and recording of AEs, clinical laboratory test results (hematology, serum chemistry, and urinalysis), vital sign measurements, 12-lead ECG results, and physical examination findings. The PA/MMA cohort will also be screened for suicidal ideation using the C-SSRS.
[10] = dog, in vivo
[11] = test system: Pcca^−/−PCCA(A138T)^tg/0 mice; assay: Survival of Pcca−/−PCCA(A138T)tg/0 mice; format: in vivo; settings: 22.5 ppm (3 mg/kg) in chow; untreated ~51%
Description: as §3
At postnatal day 90, the probability of survival of Pcca^−/−PCCA(A138T)^tg/0 mice was ˜51%.

[12] = of all Compound (I) treated subjects

O=C(Cc1ccc(C2CC2)c(F)c1)N1CCN(c2ccc(Cl)nn2)CC1 [Compound (I), 1-(4-(6-chloropyridazin-3-yl)piperazin-1-yl)-2-(4-cyclopropyl-3-fluorophenyl)ethan-1-one]
Brain (forebrain and hindbrain) total CoA response [1]: dose-responsive increase
Plasma Compound (I) concentration up to which increases in whole blood acetyl-CoA were observed (PanK): ~200 mg/mL
Plasma pantothenate (PanK; healthy adult subjects): decreased
Whole blood acetyl-CoA (PanK; healthy adult subjects): increased
Probability of survival at postnatal Day 45 [2]: −70%
C2-CoA in liver, brain and heart [3]: rescued to wild-type levels
Delay of absorption by food [4]: ~2 h
Increase in plasma exposure with food [4]: ~1.3 fold
half-life (in vivo): 1 to 3 h
Movement in open field [5]: some improvement in movement
Accumulation after multiple doses [6]: Less than 2 fold
Exposures in male rats versus female rats at the same doses [6]: lower exposures than female rats
Distribution of Compound (I) into liver, brain and heart [7]: well distributed into the liver, and to a lesser extent in brain and heart
Exposure in female mice versus males [7]: higher exposures than males
Body weight gain compared with untreated mice [8]: significantly increased
Tolerability ([9]; 60 healthy adult subjects, Phase 1 study): generally well-tolerated
Mild treatment-related TEAE abdominal pain [9, 12]: 1.7%
Mild treatment-related TEAE headache [9, 12]: 5%
Mild treatment-related TEAE nausea [9, 12]: 1.7%
Accumulation after multiple doses [10]: Less than 2 fold
Probability of survival at postnatal day 90 [11]: ~94%
